Assays:
[1] = test system: bacterial flora present on prerigor beef samples; assay: Working Example #1: total plate count on prerigor beef after spray, with or without steam; format: cell-based
Protocol: The objective of working example #1 was to determine if 0.5% and 1.0% lactic acid alone and in combination with Test Formula #1 and/or steam achieved a reduction in the bacterial flora present on prerigor beef samples. An exposure time of 10 minutes was utilized for all applications and testing was performed at 33° C. Sixteen prerigor beef samples were obtained and kept in a cooler until time of testing. Samples were aseptically divided in half. Eight different test treatments were utilized with four replicate pieces per treatment with the exception of the steam +0.5% lactic acid treatment which only had three replicate pieces. Two cores (4.3 cm diameter) were taken from each replicate piece before and after treatment, combined into 99 mL of Phosphate Buffered Dilution water, stomached for 1 minutes and then serially diluted and plated using pour plate technique. Test Products: • 1. Test Formula #1 at 200 ppm Total […] • 2. Test Formula #1 at 200 ppm Total […]+0.5% Lactic Acid • 3. Test Formula #1 at 200 ppm Total […]+1.0% Lactic Acid • 4. 0.5% Lactic Acid • 5. Steam Alone, followed by a sterile water rinse • 6. Steam+Test Formula #1 at 200 ppm Total […], followed by a sterile water rinse • 7. Steam+Test Formula #1 at 200 ppm Total […]+0.5% Lactic Acid, followed by a sterile water rinse • 8. Steam+0.5% Lactic Acid followed by a sterile water rinse Product Application: All product use solutions were applied by a spray application for 10 seconds. This delivered approximately 150 mL of product. An exposure time of 10 minutes was utilized, followed by a 10 second sterile water rinse, if applicable. Neutralizer: 99 mL of Phosphate Buffered Dilution Water Dilutions Plated: 10^0, 10^-1, 10^-2 for Total Plate Count Before • 10^0, 10^-1 for Total Plate Count After Plating Medium: Tryptone Glucose Extract Agar Incubation: 26° C. for 72 hours [table]

[2] = test system: bacterial flora of prerigor beef; assay: Working Example #2: total plate count on prerigor beef, extended spray and exposure times; format: cell-based; conditions: 0.5% Lactic Acid, 25 psi, 10 sec spray, 10-minute exposure
Excerpt: The objective of the testing was to determine the efficacy of various antimicrobial treatments with extended spray and exposure times against the bacterial flora of prerigor beef. Prerigor beef samples were obtained and kept in a cooler at ambient temperature until time of testing. Ten different test treatments were utilized with four replicates per treatment. Two cores (4.3 cm diameter) were taken as each replicate from one piece for both before- and after-treatment samples and combined into 99 mL of Letheen Broth. The cores/neutralizer mixtures were stomached for 1 minute and then serially diluted and plated using pour plate technique. Test Products: • Test Formula #1* at 200 ppm […]=0.42% (4.2 mL were added to 995.8 mL tap water) • Test Formula #1* at 500 ppm […] (10.5 mL were added to 989.5 mL tap water) • 0.5% Lactic Acid • *Test Formula #1, batch # Si120972, was titrated at 4.76% total peracid. Application: Eight cores (2 cores per replicate) were placed onto a clean and sanitary screen. The cores were sprayed with the appropriate test product utilizing a 10- or 30-second spray application time. For each replicate, two cores were removed after a 10-minute exposure time and placed into a stomacher bag containing 99 mL of neutralizer. Neutralizer: 99 mL Letheen Broth Dilutions: 10^0, 10^-1, 10^-2 for Total Plate Count Before • 10^0, 10^-1 for Total Plate Count After Plating Medium: Tryptone Glucose Extract Agar Incubation: 26° C. for 72 hours Calculations: Average CFU/plate=(All eight counts from four replicates/4) • Average CFU/plate×100=Average CFU/100 mL=Y [formula] • Dilution=10, 100, or 1000 • r=2.15 cm • 2=# of cores

[3] = test system: bacterial flora of prerigor beef; assay: Working Example #4: total plate count on prerigor beef, high pressure spray, comparison to Lactic Acid; format: cell-based; conditions: ~0.5% Lactic Acid, ~230 psi, 30 sec spray, 10-minute exposure
Excerpt: The objective of the testing was to determine the efficacy of Test Formula #1 at approximately 50, 100 and 200 ppm total peracid with a high pressure application spray at elevated temperatures in comparison to Lactic Acid against the bacterial flora of prerigor beef. Prerigor beef samples were obtained and kept in a cooler at ambient temperature until time of testing. Four different test treatments were utilized with four replicates per treatment. Two cores (4.3 cm diameter) were taken as each replicate from one piece for both before- and after-treatment samples and combined into 99 mL of Letheen Broth. The cores/neutralizer mixtures were stomached for 1 minute and then serially diluted and plated using pour plate technique. Test Product: Test Formula #1 at 50, 100 and 200 ppm total peracid • Lactic Acid (88% concentrate) • (Batch # Si120972, was titrated at 4.76% total peracid) Application: Eight cores (2 cores per replicate) were aseptically removed from each sample before treatment. These were used for the before-treatment samples. The remaining sample was placed onto a clean and sanitary screen. The sample was then sprayed with Test Formula #1 at approximately 50, 100 or 200 ppm total peracid utilizing a 20- or 30-second spray application time. 0.5% Lactic Acid utilized only the 30-second spray application. […]

[4] = test system: Listeria innocua ATCC 33090; assay: Working Example #5: inoculated prerigor beef, high-pressure spray; format: cell-based; conditions: ˜0.5%-0.75% Lactic Acid; ~220 psi, 30 second spray, ˜120° F., 10 minutes exposure
Protocol: The objective of the testing was to determine the efficacy of Test Formula #1 and Lactic Acid against Listeria innocua ATCC 33090 with a high-pressure application spray at elevated temperatures. Prerigor beef samples were obtained and kept in a cooler at ambient temperature until time of testing. Samples were cut into 13 cm pieces and 2.0 mL of the inoculum (see Test System Preparation below) was spread evenly over the entire surface of the sample. Inoculated samples were then left at room temperature (˜23° C.) for ≧15 minutes. Four replicate samples were taken (two cores per replicate) before treatment. After each spray treatment, a 10-minute exposure time was utilized, and taken four replicate samples were taken (two cores per replicate) and stomached for 1 minute, serially diluted and plated using pour plate technique. Treatments: • 1. Test Formula #1 at 200 ppm total peracid with […], 30 second spray time. • 2. Test Formula #1 at 200 ppm total peracid with ˜150 psi pressure spray, 30 second spray time. • 3. Test Formula #1 at 200 ppm total peracid with ˜100 psi pressure spray, 30 second spray time. • 4. Water Control with ˜220 psi pressure spray, 30-second spray time. • 5. ˜0.5%-0.75% Lactic Acid with ˜220 psi pressure spray, 30-second spray time. • 6. Test Formula #1 at 100 ppm total peracid with ˜220 psi pressure spray, 30 second spray time. • 7. […]

[5] = cited from earlier work

Question: With CC(O)C(=O)O (stereo not shown) [Lactic Acid, 2-hydroxypropionic acid] as the compound, how does the “Avg. Log10 Reduc.” value ([1]; 0.5% Lactic Acid, 10 s spray, 10 min exposure, 33° C.) read?
Answer: Its value is 0.91 Log10.

Question: What about the “Avg. CFU/100 mL After” value ([1]; 0.5% Lactic Acid, 10 s spray, 10 min exposure, 33° C., Before 2.7 × 10^4) of the same compound?
Answer: Its value is 5.4 × 10^3 CFU/100 mL.

Question: And the “Avg. Log10 Reduc.” value ([1]; Steam + 0.5% Lactic Acid, with sterile water rinse)?
Answer: Its value is 1.69 Log10.

Question: What about the “Avg. CFU/100 mL After” value ([1]; Steam + 0.5% Lactic Acid, with sterile water rinse, Before 2.5 × 10^4) of the same compound?
Answer: The value was 9.3 × 10^2 CFU/100 mL.

Question: And the “Avg. Log10 Reduc.” value ([2]; 98° F.)?
Answer: Its value is −0.01 Log10.

Question: And the “Avg. CFU/100 mL After” value ([2]; 98° F., Before 1.6 × 10^4)?
Answer: The value was 1.5 × 10^4 CFU/100 mL.

Question: And the “Avg. Log10 Reduc.” value ([2]; 120° F.)?
Answer: Its value is 0.07 Log10.

Question: And the “Avg. CFU/100 mL After” value ([2]; 120° F., Before 1.0 × 10^5)?
Answer: Its value is 8.4 × 10^4 CFU/100 mL.

Question: What about the “Avg. Log10 Reduc.” value [3] of the same compound?
Answer: Its value is 1.58 Log10.

Question: And the “Avg. CFU/100 mL After” value ([3]; Before 8.7 × 10^5)?
Answer: Its value is 2.3 × 10^4 CFU/100 mL.

Question: What about the “Avg. CFU/100 mL After” value [4] of the same compound?
Answer: Its value is 3.5 × 10^5 CFU/100 mL.

Question: What about the “Avg. Log10 Reduc.” value [4] of the same compound?
Answer: Its value is 1.63 Log10.

Question: With peroxyacetic acid as the compound, how does the solubility [5] read?
Answer: Its solubility is “freely soluble in water, alcohol, ether, and sulfuric acid”.

— US9770040B2, “Treatment of animal carcasses” (Ecolab USA Inc., priority 1998, dated 2017)
